{"source": "ChEMBL document CHEMBL1122324", "about": "“New antihypertensive cannabinoids” (1983)", "conditions_in_all_cases": "route oral", "key": {"Rattus norvegicus [1]": {"test_system": "Rattus norvegicus", "test": "Percentage decrease in systolic blood pressure after 6 hr at 3 mg/kg administered perorally in rats", "assay_type": "functional, Artery"}, "Rattus norvegicus [2]": {"test_system": "Rattus norvegicus", "test": "percentage decrease in heart rate after 24 hr at a dose of 30 mg/kg administered perorally in rats.", "assay_type": "functional"}, "Rattus norvegicus [3]": {"test_system": "Rattus norvegicus", "test": "Percentage decrease in systolic blood pressure after 6 hr at 1 mg/kg administered perorally in rats", "assay_type": "functional, Artery"}, "Rattus norvegicus [4]": {"test_system": "Rattus norvegicus", "test": "Effect on spontaneous motor activity in rats after 2 hr at 100 mg/kg given perorally", "assay_type": "functional"}, "Rattus norvegicus [5]": {"test_system": "Rattus norvegicus", "test": "Percentage decrease in systolic blood pressure after 4 hr at 30 mg/kg administered perorally in rats", "assay_type": "functional, Artery"}, "Rattus norvegicus [6]": {"test_system": "Rattus norvegicus", "test": "Percentage decrease in systolic blood pressure (heart rate) after 1 hr at 10 mg/kg administered perorally in rats", "assay_type": "functional, Artery"}, "Rattus norvegicus [7]": {"test_system": "Rattus norvegicus", "test": "Effect on spontaneous motor activity in rats after 1 hr at 300 mg/kg given perorally; values less than 25 % are inactive", "assay_type": "functional"}, "Rattus norvegicus [8]": {"test_system": "Rattus norvegicus", "test": "Percentage decrease in systolic blood pressure (heart rate) after 24 hr at 30 mg/kg administered perorally in rats", "assay_type": "functional, Artery"}, "Rattus norvegicus [9]": {"test_system": "Rattus norvegicus", "test": "percentage decrease in heart rate after 6 hr at a dose of 30 mg/kg administered perorally in rats.", "assay_type": "functional"}, "Rattus norvegicus [10]": {"test_system": "Rattus norvegicus", "test": "percentage decrease in heart rate after 4 hr at a dose of 10 mg/kg administered perorally in rats.", "assay_type": "functional"}, "Rattus norvegicus [11]": {"test_system": "Rattus norvegicus", "test": "Effect on spontaneous motor activity in rats after 1 hr at 30 mg/kg given perorally", "assay_type": "functional"}, "Rattus norvegicus [12]": {"test_system": "Rattus norvegicus", "test": "percentage decrease in heart rate after 24 hr at a dose of 3 mg/kg administered perorally in rats.", "assay_type": "functional"}, "Rattus norvegicus [13]": {"test_system": "Rattus norvegicus", "test": "Effect on spontaneous motor activity in rats after 2 hr at 30 mg/kg given perorally; values less than 25 % are inactive", "assay_type": "functional"}, "Rattus norvegicus [14]": {"test_system": "Rattus norvegicus", "test": "percentage decrease in heart rate after 24 hr at a dose of 10 mg/kg administered perorally in rats.", "assay_type": "functional"}, "Rattus norvegicus [15]": {"test_system": "Rattus norvegicus", "test": "Effect on spontaneous motor activity in rats after 1 hr at 10 mg/kg given perorally", "assay_type": "functional"}, "Rattus norvegicus [16]": {"test_system": "Rattus norvegicus", "test": "Effect on spontaneous motor activity in rats after 1 hr at 100 mg/kg given perorally", "assay_type": "functional"}, "Rattus norvegicus [17]": {"test_system": "Rattus norvegicus", "test": "Percentage decrease in systolic blood pressure after 24 hr at 10 mg/kg administered perorally in rats", "assay_type": "functional, Artery"}, "Rattus norvegicus [18]": {"test_system": "Rattus norvegicus", "test": "percentage decrease in heart rate after 4 hr at a dose of 30 mg/kg administered perorally in rats.", "assay_type": "functional"}, "Rattus norvegicus [19]": {"test_system": "Rattus norvegicus", "test": "Cumulative effect on spontaneous motor activity in rats at 30 mg/kg given perorally", "assay_type": "functional"}, "Rattus norvegicus [20]": {"test_system": "Rattus norvegicus", "test": "Percentage decrease in systolic blood pressure (heart rate) after 4 hr at 10 mg/kg administered perorally in rats", "assay_type": "functional, Artery"}, "Rattus norvegicus [21]": {"test_system": "Rattus norvegicus", "test": "Percentage decrease in systolic blood pressure after 4 hr at 3 mg/kg administered perorally in rats", "assay_type": "functional, Artery"}, "Rattus norvegicus [22]": {"test_system": "Rattus norvegicus", "test": "percentage decrease in heart rate after 6 hr at a dose of 1 mg/kg administered perorally in rats.", "assay_type": "functional"}, "Rattus norvegicus [23]": {"test_system": "Rattus norvegicus", "test": "Cumulative effect on spontaneous motor activity in rats at 100 mg/kg given perorally", "assay_type": "functional"}, "Rattus norvegicus [24]": {"test_system": "Rattus norvegicus", "test": "Percentage decrease in systolic blood pressure after 24 hr at 1 mg/kg administered perorally in rats", "assay_type": "functional, Artery"}, "Rattus norvegicus [25]": {"test_system": "Rattus norvegicus", "test": "percentage decrease in heart rate after 4 hr at a dose of 3 mg/kg administered perorally in rats.", "assay_type": "functional"}, "Rattus norvegicus [26]": {"test_system": "Rattus norvegicus", "test": "Percentage decrease in systolic blood pressure after 24 hr at 3 mg/kg administered perorally in rats", "assay_type": "functional, Artery"}, "Rattus norvegicus [27]": {"test_system": "Rattus norvegicus", "test": "percentage decrease in heart rate after 6 hr at a dose of 10 mg/kg administered perorally in rats.", "assay_type": "functional"}, "Rattus norvegicus [28]": {"test_system": "Rattus norvegicus", "test": "percentage decrease in heart rate after 6 hr at a dose of 3 mg/kg administered perorally in rats.", "assay_type": "functional"}, "Rattus norvegicus [29]": {"test_system": "Rattus norvegicus", "test": "Percentage decrease in systolic blood pressure after 1 hr at 3 mg/kg administered perorally in rats", "assay_type": "functional, Artery"}, "Rattus norvegicus [30]": {"test_system": "Rattus norvegicus", "test": "Percentage decrease in systolic blood pressure after 4 hr at 1 mg/kg administered perorally in rats", "assay_type": "functional, Artery"}, "Rattus norvegicus [31]": {"test_system": "Rattus norvegicus", "test": "Effect on spontaneous motor activity in rats after 2 hr at 10 mg/kg given perorally", "assay_type": "functional"}, "Rattus norvegicus [32]": {"test_system": "Rattus norvegicus", "test": "Percentage decrease in systolic blood pressure (heart rate) after 6 hr at 10 mg/kg administered perorally in rats", "assay_type": "functional, Artery"}, "Rattus norvegicus [33]": {"test_system": "Rattus norvegicus", "test": "Percentage decrease in systolic blood pressure (heart rate) after 6 hr at 30 mg/kg administered perorally in rats", "assay_type": "functional, Artery"}, "Rattus norvegicus [34]": {"test_system": "Rattus norvegicus", "test": "percentage decrease in heart rate after 1 hr at a dose of 1 mg/kg administered perorally in rats.", "assay_type": "functional"}, "Rattus norvegicus [35]": {"test_system": "Rattus norvegicus", "test": "Percentage decrease in systolic blood pressure after 1 hr at 1 mg/kg administered perorally in rats", "assay_type": "functional, Artery"}, "Rattus norvegicus [36]": {"test_system": "Rattus norvegicus", "test": "percentage decrease in heart rate after 4 hr at a dose of 1 mg/kg administered perorally in rats.", "assay_type": "functional"}, "Rattus norvegicus [37]": {"test_system": "Rattus norvegicus", "test": "Cumulative effect on spontaneous motor activity in rats at 10 mg/kg given perorally", "assay_type": "functional"}, "Rattus norvegicus [38]": {"test_system": "Rattus norvegicus", "test": "percentage decrease in heart rate after 24 hr at a dose of 1 mg/kg administered perorally in rats.", "assay_type": "functional"}, "Rattus norvegicus [39]": {"test_system": "Rattus norvegicus", "test": "Cumulative effect on spontaneous motor activity in rats at 300 mg/kg given perorally; values less than 25 % are inactive", "assay_type": "functional"}, "Rattus norvegicus [40]": {"test_system": "Rattus norvegicus", "test": "Effect on spontaneous motor activity in rats after 2 hr at 300 mg/kg given perorally; values less than 25 % are inactive", "assay_type": "functional"}, "Rattus norvegicus [41]": {"test_system": "Rattus norvegicus", "test": "percentage decrease in heart rate after 1 hr at a dose of 10 mg/kg administered perorally in rats.", "assay_type": "functional"}, "Rattus norvegicus [42]": {"test_system": "Rattus norvegicus", "test": "percentage decrease in heart rate after 1 hr at a dose of 3 mg/kg administered perorally in rats.", "assay_type": "functional"}}, "data": [{"smiles": "CCCCCC(C)C(C)c1cc(O)c2c(c1)OC(C)(C)C1=C2CN(C(=O)CO)CC1", "note": "(configuration not stated)", "values": [{"measurement": "Decrease in Systolic blood pressure", "setting": "Rattus norvegicus [1]", "result": 3, "unit": "%"}, {"measurement": "Heart rate", "setting": "Rattus norvegicus [2]", "result": -1, "unit": "%"}, {"measurement": "Decrease in Systolic blood pressure", "setting": "Rattus norvegicus [3]", "result": -5, "unit": "%"}, {"measurement": "Activity", "setting": "Rattus norvegicus [4]", "result": 32, "unit": "%"}, {"measurement": "Decrease in Systolic blood pressure", "setting": "Rattus norvegicus [5]", "result": 26, "unit": "%"}, {"measurement": "Decrease in Systolic blood pressure", "setting": "Rattus norvegicus [6]", "result": 20, "unit": "%"}, {"measurement": "Activity", "setting": "Rattus norvegicus [7]", "result": -46, "unit": "%"}, {"measurement": "Decrease in Systolic blood pressure", "setting": "Rattus norvegicus [8]", "result": 16, "unit": "%"}, {"measurement": "Heart rate", "setting": "Rattus norvegicus [9]", "result": 6, "unit": "%"}, {"measurement": "Heart rate", "setting": "Rattus norvegicus [10]", "result": 25, "unit": "%"}, {"measurement": "Activity", "setting": "Rattus norvegicus [11]", "result": 67, "unit": "%"}, {"measurement": "Heart rate", "setting": "Rattus norvegicus [12]", "result": 6, "unit": "%"}, {"measurement": "Activity", "setting": "Rattus norvegicus [13]", "result": 23, "unit": "%"}, {"measurement": "Heart rate", "setting": "Rattus norvegicus [14]", "result": 11, "unit": "%"}, {"measurement": "Activity", "setting": "Rattus norvegicus [15]", "result": 38, "unit": "%"}, {"measurement": "Activity", "setting": "Rattus norvegicus [16]", "result": 29, "unit": "%"}, {"measurement": "Decrease in Systolic blood pressure", "setting": "Rattus norvegicus [17]", "result": 4, "unit": "%"}, {"measurement": "Heart rate", "setting": "Rattus norvegicus [18]", "result": 25, "unit": "%"}, {"measurement": "Activity", "setting": "Rattus norvegicus [19]", "result": 60, "unit": "%"}, {"measurement": "Decrease in Systolic blood pressure", "setting": "Rattus norvegicus [20]", "result": 34, "unit": "%"}, {"measurement": "Decrease in Systolic blood pressure", "setting": "Rattus norvegicus [21]", "result": 15, "unit": "%"}, {"measurement": "Heart rate", "setting": "Rattus norvegicus [22]", "result": -22, "unit": "%"}, {"measurement": "Activity", "setting": "Rattus norvegicus [23]", "result": 30, "unit": "%"}, {"measurement": "Decrease in Systolic blood pressure", "setting": "Rattus norvegicus [24]", "result": -5, "unit": "%"}, {"measurement": "Heart rate", "setting": "Rattus norvegicus [25]", "result": -1, "unit": "%"}, {"measurement": "Decrease in Systolic blood pressure", "setting": "Rattus norvegicus [26]", "result": 3, "unit": "%"}, {"measurement": "Heart rate", "setting": "Rattus norvegicus [27]", "result": 7, "unit": "%"}, {"measurement": "Heart rate", "setting": "Rattus norvegicus [28]", "result": -12, "unit": "%"}, {"measurement": "Decrease in Systolic blood pressure", "setting": "Rattus norvegicus [29]", "result": 9, "unit": "%"}, {"measurement": "Decrease in Systolic blood pressure", "setting": "Rattus norvegicus [30]", "result": 0, "unit": "%"}, {"measurement": "Activity", "setting": "Rattus norvegicus [31]", "result": 116, "unit": "%"}, {"measurement": "Decrease in Systolic blood pressure", "setting": "Rattus norvegicus [32]", "result": 19, "unit": "%"}, {"measurement": "Decrease in Systolic blood pressure", "setting": "Rattus norvegicus [33]", "result": 24, "unit": "%"}, {"measurement": "Heart rate", "setting": "Rattus norvegicus [34]", "result": -18, "unit": "%"}, {"measurement": "Decrease in Systolic blood pressure", "setting": "Rattus norvegicus [35]", "result": 0, "unit": "%"}, {"measurement": "Heart rate", "setting": "Rattus norvegicus [36]", "result": -18, "unit": "%"}, {"measurement": "Activity", "setting": "Rattus norvegicus [37]", "result": 50, "unit": "%"}, {"measurement": "Heart rate", "setting": "Rattus norvegicus [38]", "result": -18, "unit": "%"}, {"measurement": "Activity", "setting": "Rattus norvegicus [39]", "result": -45, "unit": "%"}, {"measurement": "Activity", "setting": "Rattus norvegicus [40]", "result": -42, "unit": "%"}, {"measurement": "Heart rate", "setting": "Rattus norvegicus [41]", "result": 12, "unit": "%"}, {"measurement": "Heart rate", "setting": "Rattus norvegicus [42]", "result": -3, "unit": "%"}]}]}
